Test results as given in PMC8537746, “New Pyridone-Based Derivatives as Cannabinoid Receptor Type 2 Agonists” (International Journal of Molecular Sciences, 2021).

Columns and labels:
CB2 = biological target: CB2; design: method as in PMID 11597467, PMID 23623258, PMID 23395112, PMID 21702498, PMID 17004710; settings: Figure 1; cited from earlier work
HL-60 cells = assay: Neutral red uptake cell viability assay, HL-60; settings: Homo sapiens, HL-60, 72 h, read-out: IC50 HL-60
Experimental: (§1) Two different cell lines were used: HepG2 as a model of hepatic tissue; and HL-60 cells as a model of blood cells. Low levels of expression of CBR exists in normal liver however, several pathological conditions have shown high upregulation of hepatic CB2R [28].
(§2) Cell lines were grown in culture media supplemented with 10% fetal bovine serum (FBS), 100 U/mL of penicillin, 100 μg/mL of streptomycin and 1% of non-essential aminoacids. Cells between passage 5 to 10 were used in experiments. Dulbecco’s Modified Eagle Medium (DMEM) was used for HepG2 cells and Roswell Park Memorial Institute (RPMI) was used for HL-60 cells. […] All cellular lines used were provided by Dr. Mario Faúndez, Laboratory of Molecular Pharmacology, Faculty of Chemistry and Pharmacy, Pontificia Universidad Católica de Chile.
(§3) The effect of compounds in cell viability was determined by Neutral Red uptake assay. Cells were seeded in 100 μL of media at a density of 10^4 cells/well in 96-well microtiter plates. Solutions of compounds were previously prepared in DMSO and 1 μL of the corresponding solution was added to each well. The final volume of each well was adjusted to 200 μL. After 72 h of incubation, culture media was removed and 100 μL of 10 μg/mL neutral red solution prepared in culture media was added to each well and incubated for 3 h. Then, media was aspirated, the plate was washed three times with PBS 1X and 100 μL of neutral red distain solution (50:49:1 ethanol:water:glacial acetic acid) was added. The plate was placed for 15 min in a shaker and fluorescence was measured using Cytation 5 apparatus (Biotek, Winooski, VT, USA) at 530/645 nm excitation/emission wavelengths.

[1] = biological target: T1, human cannabinoid receptor type II (CB2R) (Homo sapiens, UniProt P34972); assay: Human CB2R cAMP agonist cellular functional assay (Eurofins Cerep); type: cell-based; settings: for % CB2R Agonist Response: 10 µM, CHO cells expressing hCB2R, percentage relative to control (100 nM WIN55212-2), rounded mean of two assays; for EC50: EC50, intracellular cAMP, CHO-hCB2R
T1 construct: host or cells: CHO cells
Experimental: Functional evaluation was carried out by Eurofins Cerep service assay: CB2 Human Cannabinoid GPCR Cell Based Agonist cAMP Assay. CHO cells stably expressing hCB2R (Eurofins Cerep) are suspended in HBSS buffer (Invitrogen) complemented with 20 mM HEPES (pH 7.4), then distributed in microplates at a density of 7.5 × 10^3 cells/well in the presence of either of the following: HBSS (basal control), the reference agonist at 100 nM (stimulated control) or various concentrations (EC50 determination), or the test compounds. Thereafter, the adenylyl cyclase activator NKH 477 is added at a final concentration of 3 μM. Following 10 min incubation at 37 °C, the cells are lysed, and the fluorescence acceptor (D2-labeled cAMP) and fluorescence donor (anti-cAMP antibody labeled with europium cryptate) are added. After 60 min at room temperature, the fluorescence transfer is measured at λex = 337 nm and λem = 620 and 665 nm using a microplate reader (Envison, Perkin Elmer). The cAMP concentration is determined by dividing the signal measured at 665 nm by that measured at 620 nm (ratio). The results are expressed as a percent of the control response to 100 nM WIN55212-2. The standard reference agonist is WIN 55212-2, which is tested in each experiment at several concentrations to generate a concentration-response curve from which its EC50 value is calculated.

HepG2 cells = assay: Neutral red uptake cell viability assay, HepG2; settings: for IC50: Homo sapiens, HepG2, 72 h, read-out: IC50 HepG2
Experimental: as §1, §2, §3

[2] = Neutral red uptake cell viability assay, HL-60; settings: human
Experimental: as §1, §2, §3

T1 sequence (P34972 whole entry): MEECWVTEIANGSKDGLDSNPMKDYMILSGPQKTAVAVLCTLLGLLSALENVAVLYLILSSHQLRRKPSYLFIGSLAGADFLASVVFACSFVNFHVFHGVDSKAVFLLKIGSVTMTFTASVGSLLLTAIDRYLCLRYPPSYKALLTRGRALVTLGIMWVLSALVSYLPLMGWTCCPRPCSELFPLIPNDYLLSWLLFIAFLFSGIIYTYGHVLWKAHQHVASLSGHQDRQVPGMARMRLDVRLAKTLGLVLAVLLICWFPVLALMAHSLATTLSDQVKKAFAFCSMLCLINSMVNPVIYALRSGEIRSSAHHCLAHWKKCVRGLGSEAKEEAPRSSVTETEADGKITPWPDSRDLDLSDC

| Compound | melting point [°C] | % CB2R Agonist Response [1] [%] | further results |
| --- | --- | --- | --- |
| CCOC(=O)CC#N [Compound 1] | – | – | Ki (CB2): 0.2 nM |
| N#CCC(=O)NN [Compound 2] | – | – | Ki (CB2): 14 nM |
| Cc1cc(C)n(C(=O)CC#N)n1 [Compound 3] | 119 to 121 | – | Ki (CB2): 0.6 nM |
| COc1ccc2c(=O)c(C(=O)NC3CCCCC3)cn(Cc3ccc(F)cc3)c2n1 [Compound 4] | – | – | Ki (CB2): 11 nM |
| O=C(NC1CCCCCC1)c1cn2c3c(cccc3c1=O)OCC2c1ccccc1 (stereo not drawn) [Compound 5] | – | – | Ki (CB2): 0.81 nM |
| Cc1cc(C)n(-c2ccccc2)c(=O)c1C(=O)Nc1nc2ccccc2s1 [Compound 7a, N-(benzo[d]thiazol-2-yl)-4,6-dimethyl-2-oxo-1-phenyl-1,2-dihydropyridine-3-carboxamide] | 163 to 165 | – | – |
| Cc1cc(C)n(-c2ccccc2)c(=O)c1C(=O)Nc1nc2ccccc2[nH]1 [Compound 7b, N-(1H-benzo[d]imidazol-2-yl)-4,6-dimethyl-2-oxo-1-phenyl-1,2-dihydropyridine-3-carboxamide] | 177 to 179 | 8 | IC50 (HL-60 cells): > 100000 nM; IC50 (HepG2 cells): > 200000 nM |
| Cc1cc(C)n(-c2ccccc2)c(=O)c1C(=O)Nc1nc2ccccc2o1 [Compound 7c, N-(benzo[d]oxazol-2-yl)-4,6-dimethyl-2-oxo-1-phenyl-1,2-dihydropyridine-3-carboxamide] | 228 to 230 | 13 | – |
| Cc1ccc(-n2c(C)cc(C)c(C(=O)Nc3nc4ccccc4o3)c2=O)cc1 [Compound 7d, N-(benzo[d]oxazol-2-yl)-4,6-dimethyl-2-oxo-1-(4-methylphenyl)-1,2-dihydropyridine-3-carboxamide] | – | 0 | – |
| Cc1ccc(-n2c(C)cc(C)c(C(=O)Nc3nc4ccccc4[nH]3)c2=O)cc1 [Compound 7e, N-(1H-benzo[d]imidazol-2-yl)-4,6-dimethyl-2-oxo-1-(4-methylphenyl)-1,2-dihydropyridine-3-carboxamide] | 198 to 200 | 0 | – |
| Cc1cc(C)n(-c2ccc(O)cc2)c(=O)c1C(=O)Nc1nc2ccccc2[nH]1 [Compound 7f, N-(1H-benzo[d]imidazol-2-yl)-1-(4-hydroxyphenyl)-4,6-dimethyl-2-oxo-1,2-dihydropyridine-3-carboxamide] | 176 to 178 | 13 | – |
| Cc1cc(C)n(-c2ccccc2)c(=O)c1C(=O)NC1CCCCC1 [Compound 8a, N-cyclohexyl-4,6-dimethyl-2-oxo-1-phenyl-1,2-dihydropyridine-3-carboxamide] | 139 to 140 | 12 | – |
| Cc1cc(C)n(-c2ccccc2)c(=O)c1C(=O)NC1CCCCCC1 [Compound 8b, N-cycloheptyl-4,6-dimethyl-2-oxo-1-phenyl-1,2-dihydropyridine-3-carboxamide] | 138 to 140 | – | IC50 (HL-60 cells): > 100000 nM; IC50 (HepG2 cells): > 200000 nM |
| Cc1cc(C)n(-c2ccccc2)c(=O)c1C(=O)NC12CC3CC(CC(C3)C1)C2 [Compound 8c, N-(adamantan-1-yl)-4,6-dimethyl-2-oxo-1-phenyl-1,2-dihydropyridine-3-carboxamide] | 164 to 165 | – | IC50 (HL-60 cells): > 100000 nM; IC50 (HepG2 cells): > 200000 nM |
| Cc1ccc(-n2c(C)cc(C)c(C(=O)NC34CC5CC(CC(C5)C3)C4)c2=O)cc1 [Compound 8d, N-(adamantan-1-yl)-4,6-dimethyl-2-oxo-1-(4-methylphenyl)-1,2-dihydropyridine-3-carboxamide] | 154 to 155 | – | viability at 72 h, 200 µM [2]: 10%; IC50 (HL-60 cells): > 100000 nM; EC50 [1]: 112 nM; EC50 ([1]; n = 3): 110 nM; IC50 (HepG2 cells): > 200000 nM; effect on cell viability in HepG2 cells (HepG2 cells; concentrations as high as 200 μM, compared to control): did not show significant effect on cell viability |
| Cc1ccc(-n2c(C)cc(C)c(C(=O)NC3CCCCCC3)c2=O)cc1 [Compound 8e, N-cycloheptyl-4,6-dimethyl-2-oxo-(4-methylphenyl)-1,2-dihydropyridine-3-carboxamide] | 238 to 240 | 0 | – |
| Cc1cc(C)n(-c2ccc(O)cc2)c(=O)c1C(=O)NC1CCCCCC1 [Compound 8f, N-cycloheptyl-1-(4-hydroxyphenyl)-4,6-dimethyl-2-oxo-1,2-dihydropyridine-3-carboxamide] | 232 to 233 | 0 | – |
| Cc1cc(C)n(-c2ccc(O)cc2)c(=O)c1C(=O)NC1CCCCC1 [Compound 8g, N-cyclohexyl-1-(4-hydroxyphenyl)-4,6-dimethyl-2-oxo-1,2-dihydropyridine-3-carboxamide] | 139 to 140 | 4 | – |
